Experimental data: publication PMC2851491 (The Journal of infectious diseases, 2010)
Where two headings read alike, the source gives them in different places.

Assays:
[1] = system: Day 0 wild-type isolate (A/Bethesda/NIH12-0/2008); assay: microbe, parasite or virus in culture; type: cell-based, influenza A/H3N2 virus
[2] = system: A/Wisconsin/67/2005 (H3N2); assay: microbe, parasite or virus in culture; type: cell-based, influenza A/H3N2 virus
[3] = system: Day 8 isolate (deletion in NA of AA 245–248); type: cell-based, influenza A/H3N2 virus; details: read-out: High Throughput Assay EC50 (95% CI)
[4] = system: Day 8 isolate (deletion in NA of AA 245–248); type: cell-based, influenza A/H3N2 virus; details: for IC50: read-out: Plaque Reduction Assay IC50 (95% CI)
[5] = system: Day 0 wild-type isolate (A/Bethesda/NIH12-0/2008); type: cell-based, influenza A/H3N2 virus; details: read-out: Plaque Reduction Assay IC50 (95% CI)
[6] = target: NA of Day 0 wild-type isolate (A/Bethesda/NIH12-0/2008) (Influenza A virus, UniProt D3XBZ2); type: biochemical, influenza A/H3N2 virus; details: read-out: NA-inhibition Assay IC50 (95% CI)
[7] = target: NA of Day 8 isolate (deletion in NA of AA 245–248) (Influenza A virus, UniProt D3XBZ2, DEL245-248); assay: biochemical; type: biochemical, influenza A/H3N2 virus
[8] = read-out: High Throughput Assay EC50 (95% CI)

Row | SMILES | EC50 ([1]; Influenza A virus, in Homo sapiens, 0 h, read-out: High Throughput Assay EC50) [nM] | EC50 ([2]; Influenza A virus, H3N2, read-out: High Throughput Assay EC50) [nM] | EC50 [1, 8] [nM] | EC50 [3] [nM] | IC50 [4] [nM] | EC50 [2, 8] [nM] | IC50 [5] [nM] | IC50 [6] [nM] | IC50 [7] [nM] | fold increase in IC50, NA activity assay [7] [fold] | fold increase in IC50 / IC50/EC50, summary over drug sensitivity assays [7] [fold] | fold increase in IC50, plaque reduction assay [4] [fold]
1 | NC12CC3CC(CC(C3)C1)C2 [Amantadine, amantadine] | > 200000 | > 200000 | – | – | – | – | – | – | – | – | – | –
2 | CCOC(=O)C1=C[C@@H](OC(CC)CC)[C@H](NC(C)=O)[C@@H](N)C1 [Oseltamivir, oseltamivir] | – | – | 0.21 | 443 | 49.7 | 0.37 | 0.38 | – | – | – | – | –
3 | CC(=O)N[C@H]1[C@H]([C@H](O)[C@H](O)CO)OC(C(=O)O)=C[C@@H]1N=C(N)N [Zanamivir, zanamivir] | – | – | 18.9 | 131 | 224 | 6.16 | 15.6 | 4 | 12.7 | 3 | 3 to 7 | 14
